Measured values taken from PMC11823679, “Protamine protects against vancomycin-induced kidney injury” (Antimicrobial Agents and Chemotherapy, 2025).
“Also recorded” adds a separate entry of the source.

Legend:
[1] = in vivo; cited from earlier work
Procedure: Additional work i ... || Despite the promise of protamine as a new treatment approach, this study is subject to several limitations. First, our study was performed in rats. While the rat model has shown strong relevance to the human condition ([14]) with respect to VAN, clinical trials are necessary to confirm the effect. Second, protamine delayed kidney injury by 1–3 days; however, a multi-pronged approach may be needed to fully suppress injury in vancomycin therapy that exceeds 2 days. Third, as noted above, protamine is not a viable therapeutic for patients who require heparin. Fourth, protamine itself is associate ...

OCT2 = OCT2 inhibition study (HEK cells, metformin substrate); format: cell-based; conditions: for Inhibition of OCT2 (in words): metformin 100 µM
Procedure: (§1) Organic anion transporter (OAT1 and OAT3) and OCT2 inhibition studies with protamine sulfate were performed by Eurofins Scientific (St. Charles, MO, USA) as previously described ([38], [39]). Protamine sulfate was dissolved in DMSO to 1.0E-02 M and tested concurrently with p-aminohippurate 10 µM (substrate) for OAT1, ranitidine 10 µM (substrate) for OAT3, and metformin 100 µM (substrate) for OCT2. A pre-incubation time of 30 minutes was used, followed by 20 minutes of incubation with the substrate. CHOK1 cells were used in OAT1 and 3 experiments, and HEK cells were used in OCT2 experiments. The percentage of inhibition was calculated vs the percentage of control. The IC50 value (concentration causing a half-maximal inhibition of the control value) was determined by nonlinear regression analysis of the concentration-response curve from a Hill equation.
(§2) No data were excluded as outliers.

Urinary KIM-1 = Urinary KIM-1 kidney injury in rats given vancomycin and/or protamine
Procedure: Male Sprague-Dawley rats (n = 19; age 8–10 weeks; 268–304 g; Envigo, Indianapolis, IN, USA) underwent double jugular catheterization ([33]) (Fig. 3A). Surgery was performed under ketamine (100 mg/kg of body weight) and xyalzine (10 mg/kg of body weight) anesthesia with buprenorphine (0.02 mg/kg of body weight) given post-operatively for pain management. Animals were allowed to recover 4 days before the administration of any drug. Animals were housed in metabolic cages starting 1 day prior to day 0 with access to food and water ad libitum for the duration of the study (Fig. 3B).
Animals were divided into three experimental treatment protocols. Using a dedicated jugular vein for dosing, the animals received clinical grade intravenous protamine and/or vancomycin in doses allometrically scaled to humans according to the following protocols: (i) protamine sulfate (1.5 mg/kg of body weight) and vancomycin (150 mg/kg of body weight) (n = 6); (ii) protamine only (1.5 mg/kg of body weight) with saline sham (sham for volume of vancomycin) (n = 7); or (iii) vancomycin only (150 mg/kg of body weight) with saline sham (sham for volume of protamine) (n = 6) ([34][–][36]). Saline sham was given to match the volumes of protamine and vancomycin doses to maintain euvolemia. On day 0, all animals received only iohexol (51.8 mg/day) intravenously to establish baseline GFR measurements. Drugs were administered as described above by treatment protocols to all groups on days 1–4. Infusion times for each of the drugs include (i) protamine sulfate, 5 minutes; (ii) vancomycin and iohexol, 2 minutes; and (iii) saline sham, 5 or 2 minutes depending on what the sham was replacing.
Urine samples were collected daily, and volumes were measured starting from day 0 to day 4. Samples were centrifuged at 500 g for 10 minutes, and the resulting supernatant was aliquoted (1.5 mL) and stored at −80°C for renal biomarker analysis later.
Urinary samples were analyzed for KIM-1 using the Milliplex MAP Rat Kidney Toxicity Magnetic Bead Panel 1 (EMD Millipore Corporation, Charles, MO, USA) according to the manufacturer’s directions and as previously described ([34], [36], [37]). Briefly, neat urine aliquots were mixed with monoclonal antibody-coated magnetic microbeads (Bead Panel 1) and run on a 96-well plate, which also included a standard curve. Biomarker data were acquired, and concentrations were analyzed using Belysa Immunoassay Curve-Fitting Software V1 (MilliporeSigma, Darmstadt, Germany). The amount of urinary KIM-1 excreted over the 24-h collection period was obtained by multiplying the urinary concentration by 24-h urinary volume.
An omnibus test, i.e., joint tests (multi-degree of freedom) of the interaction and main effects, which is similar to the F test in ANOVA, was used initially (STATA 17.0 BE, StataCorp LLC, College Station, TX, USA). Only models with significant interaction at P < 0.05 were selected for post hoc analysis (i.e., identification of the difference between treatment groups and days). Margins were calculated for a full factorial of the variables, i.e., main effects for each variable and interactions. Referent groups were pre-treatment baseline values and protamine alone as a treatment, except where noted. […] LOWESS graphs were produced in R version 4.2.2 using ggplot2. […] All tests were two-tailed; a P < 0.05 was required for statistical significance. Graphs for cellular studies were generated using GraphPad version 9.3.1 and were fit with a log(inhibitor) vs normalized response function after log transformation.

opossum kidney cells = conditions: cited from earlier work
Description: Based on chemical structure, we hypothesized that protamine might block megalin and decrease VAN. While relatively little information is available on the megalin-binding capacity of protamine, protamine shares binding sites with heparin (which is the current target for FDA-approved use) and megalin ([30], [31]). […] Megalin antagonists ... || Originally derived from salmon fish sperm (salmine), protamine is a highly positively charged protein consisting of 32 amino acids. Currently, it is widely used as an effective agent to neutralize heparin using electrostatic bonds made between the cationic arginine groups of protamine and the anionic heparin in a 1:1 ratio ([6]). Specifically, protamine shares binding sites with heparin (current target for FDA-approved use) and megalin ([30], [31]). On this note, a clinical limitation for the use of protamine arises for patients who require heparin infusions, such as post-diabetic foot infecti ...

OAT3 = OAT3 inhibition study (CHOK1 cells, ranitidine substrate); format: cell-based; conditions: for Inhibition of OAT3 (in words): ranitidine 10 µM
Procedure: as §1, §2

OAT1 = OAT1 inhibition study (CHOK1 cells, p-aminohippurate substrate); format: cell-based; conditions: for Inhibition of OAT1 (in words): p-aminohippurate 10 µM
Procedure: as §1, §2

[2] = CHOK1 cells, listed as protamine

- IC50 (OCT2; HEK cells, metformin 100 µM substrate, pre-incubation 30 minutes, 20 minutes with substrate, protamine sulfate in DMSO, Eurofins): 43 µM
- IC50 ratio protamine vs verapamil (OCT2; OCT2): 5.2 times higher
- Inhibition of OCT-2 (OCT2; at similar concentrations (to 0.1 mM) of protamine, Fig. 6): at least 50%
- IC50 (OAT3; CHOK1 cells, ranitidine 10 µM substrate, pre-incubation 30 minutes, 20 minutes with substrate, protamine sulfate in DMSO, Eurofins): 100 µM
- IC50 ratio protamine vs probenecid (OAT3; OAT3): 58.8 times higher
- Inhibition of OAT-3 (OAT3; at 0.1 mM protamine, Fig. 6): < 50%
- IC50 (OAT1; CHOK1 cells, p-aminohippurate 10 µM substrate, pre-incubation 30 minutes, 20 minutes with substrate, protamine sulfate in DMSO, Eurofins): 100 µM
- IC50 ratio protamine vs probenecid (OAT1; OAT1): 62.5 times higher
- Inhibition of OAT-1 (OAT1; at 0.1 mM protamine, Fig. 6): < 50%
Substance: Protamine
- Safety liabilities (in words) [1]: severe hypotension and anaphylactoid-like reactions
- Toxicities (in words) [1]: cardiopulmonary dysfunction and shock as well as antibody-mediated hypersensitivity reactions
- Inhibition of OCT2 (in words) (OCT2; HEK cells): does not appear to have significant inhibition on OAT1, OAT3, or OCT2
- Inhibition of OCT2 (in words) (OCT2; HEK cells, listed as protamine): No substantial inhibition; also recorded: does not have a significant inhibition on OAT1, OAT3, or OCT2 except at extremely high concentrations; also recorded: minor inhibition
- Protective effect against vancomycin-associated nephrotoxicity (in words) (Urinary KIM-1; addition of protamine to vancomycin): provides a protective effect against vancomycin-associated nephrotoxicity
- Delay of vancomycin-induced kidney injury as defined by urinary KIM-1 (Urinary KIM-1; protamine added to vancomycin therapy): 1 to 3 days
- KIM-1 change from baseline of day 1 (in words) (Urinary KIM-1; rat, in vivo): did not have a KIM-1 increase over the 4 days
- KIM-1 compared to protamine alone (in words) (Urinary KIM-1; rat, in vivo): did not experience this increase on day 2
- KIM-1 compared to vancomycin alone (in words) (Urinary KIM-1; rat, in vivo): numerically similar to animals that received vancomycin alone
- Injury prevention (in words) (Urinary KIM-1; urinary KIM-1, protamine with vancomycin): a full day of injury prevention
- Entry into kidney epithelial cells (in words) (opossum kidney cells): enters kidney epithelial cells and localizes in the cytoplasm via receptor-mediated endocytosis
- Inhibition of gentamicin uptake (in words) (opossum kidney cells; cultured opossum kidney cells that expressed megalin and cubilin, ref Nagai and colleagues ([32])): inhibited the uptake of gentamicin
- Prevention of gentamicin accumulation (in words) (opossum kidney cells; kidney epithelial cells): has demonstrated prevention of gentamicin accumulation
- Inhibition of OAT3 (in words) (OAT3; CHOK1 cells): does not appear to have significant inhibition on OAT1, OAT3, or OCT2
- Inhibition of OAT3 (in words) (OAT3; [2]): No substantial inhibition; also recorded: does not have a significant inhibition on OAT1, OAT3, or OCT2 except at extremely high concentrations; also recorded: little to no inhibition
- Inhibition of OAT1 (in words) (OAT1; CHOK1 cells): does not appear to have significant inhibition on OAT1, OAT3, or OCT2
- Inhibition of OAT1 (in words) (OAT1; [2]): No substantial inhibition; also recorded: does not have a significant inhibition on OAT1, OAT3, or OCT2 except at extremely high concentrations; also recorded: little to no inhibition
